Assays:
[1] = molecular target: T1, human mGlu2 receptor (Homo sapiens, UniProt Q14416); assay: [35S]GTPγS binding assay, mGluR2 PAM; type: biochemical; details: in presence of glutamate at EC20; EC50 expressed in M; read-out: GTPγS - hmGluR2 PAM pEC50 (converted)
T1 construct: expressed in transfected cells; host or cells: CHO cells
Protocol: [^35S]GTPγS Binding Assay
The [^35S]GTPγS binding assay is a functional membrane-based assay used to study G-protein coupled receptor (GPCR) function whereby incorporation of a non-hydrolysable form of GTP, [^35S]GTPγS (guanosine 5′-triphosphate, labelled with […] ^35S), is measured.
Cells were then collected by scraping in PBS and cell suspension was centrifuged (10 min at 4000 RPM in benchtop centrifuge). Supernatant was discarded and pellet gently resuspended in 50 mM Tris-HCl, pH 7.4 by mixing with a vortex and pipetting up and down. The suspension was centrifuged at 16,000 RPM (Sorvall RC-5C plus rotor SS-34) for 10 minutes and the supernatant discarded. The pellet was homogenized in 5 mM Tris-HCl, pH 7.4 using an ultra-turrax homogenizer and centrifuged again (18,000 RPM, 20 min, 4° C.). The final pellet was resuspended in 50 mM Tris-HCl, pH 7.4 and stored at −80° C. in appropriate aliquots before use. Protein concentration was determined by the Bradford method (Bio-Rad, USA) with bovine serum albumin as standard.
Measurement of mGluR2 positive allosteric modulatory activity of test compounds was performed as follows. Test compounds and glutamate were diluted in assay buffer containing 10 mM HEPES acid, 10 mM HEPES salt, pH 7.4, 100 mM NaCl, 3 mM MgCl2 and 10 μM GDP. Human mGlu2 receptor-containing membranes were thawed on ice and diluted in assay buffer supplemented with 14 μg/ml saponin. Membranes were pre-incubated with compound alone or together with a predefined (˜EC20) concentration of glutamate (PAM assay) for 30 min at 30° C. After addition of [^35S]GTPγS (f c. 0.1 nM), assay mixtures were shaken briefly and further incubated to allow [^35S]GTPγS incorporation on activation (30 minutes, 30° C.). Final assay mixtures contained 7 μg of membrane protein in 10 mM HEPES acid, 10 mM HEPES salt, pH 7.4, 100 mM NaCl, 3 mM MgCl2, 10 μM GDP and 2 μg/ml saponin. […] Filters were washed 6 times with ice-cold 10 mM NaH2PO4/10 mM Na2HPO4, pH 7.4. Filters were then air-dried, and 40 μl of liquid scintillation cocktail (Microscint-O) was added to each well. Membrane-bound radioactivity was counted in a Microplate Scintillation and Luminescence Counter from Perkin Elmer.
The concentration-response curves of representative compounds of the present invention—obtained in the presence of EC20 of mGluR2 agonist glutamate to determine positive allosteric modulation (PAM)—were generated using the Lexis software interface (developed at J&J). Data were calculated as % of the control glutamate response, defined as the maximal response that is generated upon addition of glutamate alone. Sigmoid concentration-response curves plotting these percentages versus the log concentration of the test compound were analyzed using non-linear regression analysis. The concentration producing half-maximal effect is then calculated as EC50.
The pEC50 values below were calculated as the −log EC50, when the EC50 is expressed in M. Emax is defined as relative maximal effect (i.e. maximal % effect relative to the control glutamate response).
All compounds were tested in presence of mGluR2 agonist glutamate at a predetermined EC20 concentration, to determine positive allosteric modulation. pEC50 values were calculated from a concentration-response experiment of at least 8 concentrations.

[2] = system: Adult male CF No 1 albino mice; assay: Minimal motor impairment (rotarod) in mice; type: in vivo
Protocol: Test compounds were administered using an optimal fluid volume to body fluid ratio. Test compounds were administered to mice in a volume of 0.01 ml/g of body weight (White, H. S., et al., General principles: Experimental selection, quantification, and evaluation of antiepileptic drugs, in Antiepileptic Drugs, Fourth Edition, R. H. Levy, R. H. Mattson, and B. S. Meldrum, Editors. 1995, Raven Press, Ltd.: New York. p. 99-110). The test compound number 6 was administered orally (p.o.). For each of the tests performed on the test compound, a 40% Hydroxypropyl-β-cyclodextrin (Hp-β-CD) stock solution was first prepared and utilized for formulating the test compound number 6 at the desired concentrations for testing via the oral (p.o.) route. Final compound concentrations were administered as suspensions in 20% Hp-β-CD. A 20% Hp-β-CD solution was used for the vehicle groups.
Adult male CF No 1 albino mice (26-35 g) were obtained from Charles River, Portage, Mich. The animals were maintained on an adequate diet (Prolab RMH 3000) and allowed free access to food and water, except during the short time they were removed from their cage for testing. Animals newly received in the laboratory were allowed sufficient time to correct for possible food and water restriction incurred during transit before being employed in testing. All mice were housed in plastic cages in specially constructed rooms with controlled humidity, exchange of air and controlled lighting (12 hours on-12 hours off). The animals were housed, fed, and handled in a manner consistent with the recommendations in the National Council Publication, “Guide for the Care and Use of Laboratory animals.” Experimental Design General Methods Minimal Motor Impairment (MMI):
Acute MMI was assessed by a combination of direct observations of the animal for overt symptoms of the animal's neurological or muscular function. In mice, the rotarod procedure was used to disclose minimal muscular or neurological impairment. When a mouse is placed on a rod that rotates at a speed of 6 rpm, the animal can maintain its equilibrium for long periods of time. The animal was considered toxic if it fell off this rotating rod three times during a 1 min period.

T1 sequence (Q14416 19-872): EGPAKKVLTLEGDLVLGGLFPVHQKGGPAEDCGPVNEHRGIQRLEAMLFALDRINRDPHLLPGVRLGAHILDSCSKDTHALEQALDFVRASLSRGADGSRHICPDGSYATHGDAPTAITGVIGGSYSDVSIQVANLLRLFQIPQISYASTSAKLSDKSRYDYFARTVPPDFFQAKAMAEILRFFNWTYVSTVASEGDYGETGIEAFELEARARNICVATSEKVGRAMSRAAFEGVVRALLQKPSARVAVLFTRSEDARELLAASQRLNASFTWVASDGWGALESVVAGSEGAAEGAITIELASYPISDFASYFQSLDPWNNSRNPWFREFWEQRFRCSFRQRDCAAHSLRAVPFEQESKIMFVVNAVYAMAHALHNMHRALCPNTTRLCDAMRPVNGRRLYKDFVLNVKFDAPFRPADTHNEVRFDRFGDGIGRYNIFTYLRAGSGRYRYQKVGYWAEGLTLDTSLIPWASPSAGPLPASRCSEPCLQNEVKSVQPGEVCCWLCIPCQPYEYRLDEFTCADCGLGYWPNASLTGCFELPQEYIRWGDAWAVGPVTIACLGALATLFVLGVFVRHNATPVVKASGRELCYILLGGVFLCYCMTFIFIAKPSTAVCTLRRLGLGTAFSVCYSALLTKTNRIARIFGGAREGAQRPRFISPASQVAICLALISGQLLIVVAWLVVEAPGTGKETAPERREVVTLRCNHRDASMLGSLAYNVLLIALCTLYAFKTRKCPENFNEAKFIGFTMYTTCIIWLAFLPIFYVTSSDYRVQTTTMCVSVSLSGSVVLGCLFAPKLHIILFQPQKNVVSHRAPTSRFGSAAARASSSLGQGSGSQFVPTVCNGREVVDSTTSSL

EC50 [1]: 40.7 nM
SMILES: C[C@H](Oc1ccc(F)cc1F)c1ccn2c(CC3CC3)nnc2c1C(F)(F)F [Compound 6, 3-(Cyclopropylmethyl)-7-[(1S)-1-(2,4-difluorophenoxy)ethyl]-8-(trifluoromethyl)[1,2,4]triazolo[4,3-a]pyridine]
# rotarod motor impairment/# tested ([2]; 10 mg/kg p.o., 0.25 h): 0/4
# rotarod motor impairment/# tested ([2]; 10 mg/kg p.o., 0.5 h): 0/4
# rotarod motor impairment/# tested ([2]; 10 mg/kg p.o., 1 h): 0/4
# rotarod motor impairment/# tested ([2]; 10 mg/kg p.o., 2 h): 0/4
# rotarod motor impairment/# tested ([2]; 10 mg/kg p.o., 4 h): 0/4
# rotarod motor impairment/# tested ([2]; 20 mg/kg p.o., 0.25 h): 0/4
# rotarod motor impairment/# tested ([2]; 20 mg/kg p.o., 0.5 h): 0/4
# rotarod motor impairment/# tested ([2]; 20 mg/kg p.o., 1 h): 0/4
# rotarod motor impairment/# tested ([2]; 20 mg/kg p.o., 2 h): 0/4
# rotarod motor impairment/# tested ([2]; 20 mg/kg p.o., 4 h): 0/4
# rotarod motor impairment/# tested ([2]; dose-response, 6 Hz 32 mA group, 2.5 mg/kg p.o., 0.5 h): 0/8
# rotarod motor impairment/# tested ([2]; dose-response, 6 Hz 32 mA group, 5 mg/kg p.o., 0.5 h): 0/8
# rotarod motor impairment/# tested ([2]; dose-response, 6 Hz 32 mA group, 10 mg/kg p.o., 0.5 h): 0/8
# rotarod motor impairment/# tested ([2]; dose-response, 6 Hz 32 mA group, 20 mg/kg p.o., 0.5 h): 0/8
# rotarod motor impairment/# tested ([2]; dose-response, 6 Hz 44 mA group, 10 mg/kg p.o., 0.5 h): 0/8
# rotarod motor impairment/# tested ([2]; dose-response, 6 Hz 44 mA group, 15 mg/kg p.o., 0.5 h): 0/8
# rotarod motor impairment/# tested ([2]; dose-response, 6 Hz 44 mA group, 20 mg/kg p.o., 0.5 h): 0/8
# rotarod motor impairment/# tested ([2]; dose-response, 6 Hz 44 mA group, 40 mg/kg p.o., 0.5 h): 0/8
